Laboratory results taken from ChEMBL document CHEMBL1201862, “PubChem BioAssay data set” (2004).
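96-well plates; 48 h exposure; 5 concentrations. Endpoints by linear interpolation between flanking doses. Not reached: highest tested concentration assigned. GI50 is the concentration that inhibits growth by half.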 Activity calls are given as the source filed them. No stated cut-off is given here; in the data, active = GI50 up to about 1.1 µM and inactive = higher.

Key:
Assay in all cases: NCI anticancer screen, dose series, 48 h
[1] = test system: CCRF-CEM
[2] = test system: DU-145
[3] = test system: HCT-15
[4] = test system: HOP-92
[5] = test system: Hs-578T
[6] = test system: IGROV-1
[7] = test system: KM-20L2
[8] = test system: LOX IMVI
[9] = test system: NCI-H23
[10] = test system: NCI-H522
[11] = test system: RXF 393
[12] = test system: SF-268
[13] = test system: SK-MEL-28
[14] = test system: SK-MEL-2
[15] = test system: SK-OV-3
[16] = test system: SN12C
[17] = test system: SNB-75
[18] = test system: SW-620
[19] = test system: UO-31
[20] = test system: CAKI-1

SMILES | GI50 [1] | GI50 [2] | GI50 [3] [nM] | GI50 [4] | GI50 [5] | GI50 [6] | GI50 [7] | GI50 [8] | GI50 [9] | GI50 [10] | GI50 [11] | GI50 [12] | GI50 [13] | GI50 [14] | GI50 [15] | GI50 [16] | GI50 [17] | GI50 [18] | GI50 [19] | GI50 [20]
CC(C)=CC(=O)OC1C2C(C)=CC(=O)C(O)C2(C)C2C3(O)OCC24C(CC(=O)OC14)C(C)C3O (stereo not given) | 8.59 nM (active) | 3.54 nM (active) | 42.6 | 6.84 nM (active) | 2.25 nM (active) | 8.49 nM (active) | 31.6 nM (active) | 1.5 nM (active) | 6.55 nM (active) | 2.83 nM (active) | 14.9 nM (active) | 29 nM (active) | 4.61 nM (active) | 17.9 nM (active) | 213 nM (active) | 47.9 nM (active) | 14.1 nM (active) | 8.22 nM (active) | 203 nM (active) | 
CCN(CC)CC(=O)O[C@]1(CC)C(=O)OCc2c1cc1n(c2=O)Cc2cc3ccccc3nc2-1 | < 10 nM (active) | < 10 nM (active) | 170 | 211 nM (active) | 3210 nM (inactive) | 110 nM (active) | 152 nM (active) | < 11.6 nM (active) | < 16 nM (active) | 24.7 nM (active) | 83.6 nM (active) | < 12 nM (active) | 179 nM (active) | 382 nM (active) | 82.6 nM (active) | 20.4 nM (active) | 26.6 nM (active) | 94.6 nM (active) | 19.6 nM (active) | < 10 nM (active)
CCOC(=O)/C(ON)=C(/CC/C(C(=O)OC)=C(\ON)C(=O)OCC)C(=O)OC | > 100000 nM (inactive) |  | > 100000 | > 100000 nM (inactive) |  | > 100000 nM (inactive) | > 100000 nM (inactive) | > 100000 nM (inactive) | > 100000 nM (inactive) | > 100000 nM (inactive) | > 100000 nM (inactive) | > 100000 nM (inactive) | > 100000 nM (inactive) | > 100000 nM (inactive) | > 100000 nM (inactive) | > 100000 nM (inactive) | > 100000 nM (inactive) | > 100000 nM (inactive) | > 100000 nM (inactive) | > 100000 nM (inactive)
N#Cc1cc([N+](=O)[O-])ccc1NC(=O)/C(=N\NC(=O)c1ccncc1)C(c1cnc2ccc([N+](=O)[O-])cc2n1)[N+](=O)[O-] (stereo not given) | 3380 nM (inactive) | 5640 nM (inactive) | 2030 | 9180 nM (inactive) | 2260 nM (inactive) | 3780 nM (inactive) | 4260 nM (inactive) | 759 nM (active) | 910 nM (active) | 1800 nM (inactive) | 4440 nM (inactive) | 2860 nM (inactive) | 2170 nM (inactive) | 1750 nM (inactive) | 8020 nM (inactive) | 1850 nM (inactive) | 1990 nM (inactive) | 2400 nM (inactive) | 2310 nM (inactive) | 5980 nM (inactive)
N=C1NC(=O)N2CC12 (stereo not given) [IMEXON] | 50800 nM (inactive) |  | > 100000 | > 100000 nM (inactive) |  | > 100000 nM (inactive) | > 100000 nM (inactive) | > 100000 nM (inactive) | > 100000 nM (inactive) | > 100000 nM (inactive) | > 100000 nM (inactive) | > 100000 nM (inactive) | > 100000 nM (inactive) | > 100000 nM (inactive) | > 100000 nM (inactive) | > 100000 nM (inactive) | > 100000 nM (inactive) | > 100000 nM (inactive) | > 100000 nM (inactive) | > 100000 nM (inactive)
